Measured values published in patent US10570184B2, “GLP-1/glucagon receptor co-agonists for medical use” (Novo Nordisk A/S, priority 2014, dated 2020).
Starred links: 1 amine or outer side, 2 acyl side, 3 side chain; linkers in the order of their positions; H or OH if unused. Non-standard residues stand in square brackets, D forms with d. Residues, ends and D or L forms follow the SMILES beside them. Groups on a side chain read outwards from the residue. *: point of attachment. C18 diacid = O=C(O)CCCCCCCCCCCCCCCCC(=O)*; γGlu = O=C(O)[C@H](CCC(=O)[*:2])N[*:1]; AEEA = NCCOCCOCC(=O)O; Aib = CC(C)(N)C(=O)O

Assays:
human GLP-1 receptor [1] = target: T1, human GLP-1 receptor (Homo sapiens, UniProt P43220); experiment: Assay (I)(a) GLP-1 receptor activation, CRE luciferase reporter gene assay in BHK cells; assay type: cell-based; settings: without presence of serum albumin; read-out: GLP-1R EC50 (pM) [Assay (I)(a)]
T1 construct: expressed in transfected cells; host or cells: membranes of BHK cells (parent BHKTS13), clone FCW467-12A
T1 sequence (P43220 24-463): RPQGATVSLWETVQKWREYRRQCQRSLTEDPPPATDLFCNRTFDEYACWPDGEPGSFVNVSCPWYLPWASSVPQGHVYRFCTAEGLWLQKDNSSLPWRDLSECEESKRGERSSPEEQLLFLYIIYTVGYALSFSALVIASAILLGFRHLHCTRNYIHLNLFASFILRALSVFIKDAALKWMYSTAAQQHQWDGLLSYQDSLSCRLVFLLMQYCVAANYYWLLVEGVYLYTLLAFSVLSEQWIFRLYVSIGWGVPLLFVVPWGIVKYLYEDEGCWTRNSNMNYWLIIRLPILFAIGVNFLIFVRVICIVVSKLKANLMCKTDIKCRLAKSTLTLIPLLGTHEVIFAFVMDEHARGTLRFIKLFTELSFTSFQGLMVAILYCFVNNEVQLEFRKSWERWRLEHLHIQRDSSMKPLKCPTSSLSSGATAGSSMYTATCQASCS
Procedure: The purpose of this example was to test the activity or potency, of the glucagon derivatives of the invention, in vitro. The in vitro potency is the measure of human GLP-1 receptor (GLP-1R) or glucagon receptor (glucagonR) activation, respectively, in a whole cell assay. In vitro potency was determined by measuring the response of human GLP-1 or glucagon receptor, respectively, in a reporter gene assay. The assay was performed in a stably transfected BHK cell line that expresses either the human GLP-1 receptor or the human glucagon receptor and contains the DNA for the cAMP response element (CRE) coupled to a promoter and the gene for firefly luciferase (CRE luciferase). […] When assay incubation was completed, the luciferase substrate (luciferin) was added and the enzyme converted luciferin to oxyluciferin and produces bioluminescence. The luminescence was measured as the readout for the assay. The cells used in this assay (clone FCW467-12A/KZ10-1) were BHK cells with BHKTS13 as a parent cell line. The cells were derived from a clone (FCW467-12A) that expresses the human GLP-1 receptor and were established by further transfection with CRE luciferase to obtain the current clone. The cells were cultured at 5% CO2 in DMEM medium with 10% FBS, 1×GlutaMAX, 1 mg/ml G418, 240 nM MTX (methotrexate) and 1% pen/strep (penicillin/streptomycin). They were aliquoted and stored in liquid nitrogen. Before each assay, an aliquot was taken up and washed three times in PBS before being suspended at the desired concentration in assay medium. For 96-well plates the suspension was made to give a final concentration of 5×10EE3 cells/well. The following chemicals were used in the assay: Pluronic F-68 (10%) (Gibco 2404), ovalbumin (Sigma A5503), DMEM w/o phenol red (Gibco 11880-028), 1 M Hepes (Gibco 15630), Glutamax 100× (Gibco 35050) and steadylite plus (PerkinElmer 6016757). Assay Medium consisted of DMEM w/o phenol red, 10 mM Hepes, 1× GlutaMAX, 2% Ovalbumin and 0.2% Pluronic F-68. Cell stocks were thawed in a 37° C. water bath. Cells were washed three times in PBS. The cells were counted and adjusted to 5×10EE3 cells/50 μl (1×10EE5 cells/ml) in Assay Medium. A 50 μl aliquot of cells was transferred to each well in the assay plate. Stocks of the test compounds and reference compounds were diluted to a concentration of […] in Assay Medium. Compounds were diluted 10-fold to give the following concentrations: 2×10EE-6 M, 2×10EE-7 M, 2×10EE-8 M; 2×10EE-9 M, 2×10EE-10 M, 2×10EE-11 M, 2×10EE-12 M and 2×10EE-13 M. For each compound a blank assay medium control was also included. A 50 μl aliquot of compound or blank was transferred from the dilution plate to the assay plate. Compounds were tested at the following final concentrations: 1×10EE-6 M, 1×10EE-7 M, 1×10EE-8 M; 1×10EE-9 M, 1×10EE-10 M, 1×10EE-11 M and 1×10EE-12 M and 1×10EE-13 M. The assay plate was incubated for 3 h in a 5% CO2 incubator at 37° C. The assay plate was removed from the incubator and allowed to stand at room temperature for 15 min. A 100 μl aliquot of steadylite plus reagent was added to each well of the assay plate (reagent is light sensitive). Each assay plate was covered with aluminum foil to protect it from light and shaken for 30 min at room temperature. Each assay plate was read in a Perkin Elmer TopCount NXT instrument. The data from the TopCount instrument was transferred to GraphPad Prism software. The software performed a non-linear regression (log(agonist) vs response-Variable slope (four parameter)). EC50 values were calculated by the software and reported in pM.

human GLP-1 receptor [2] = target: T1, human GLP-1 receptor; experiment: Assay (II)(a) GLP-1 receptor binding, 125I-GLP-1 displacement SPA on BHK membranes; settings: without presence of serum albumin; read-out: GLP-1R IC50 (nM) [Assay (II)(a)]
Procedure: The GLP-1 receptor (GLP-1R) binding is a measure of affinity of a compound for the human GLP-1 receptor. The receptor binding of each compound to the human GLP-1 receptor was measured in a displacement binding assay. In this type of assay a labelled ligand (in this case 125I-GLP-1) is bound to the receptor. Each derivative was added in a series of concentrations to isolated membranes containing the human GLP-1 receptor and displacement of the labelled ligand was monitored. The receptor binding was reported as the concentration at which half of the labelled ligand was displaced from the receptor, the IC50 value. In order to test the binding of the derivatives to albumin, the assay may be performed in a very low concentration of serum albumin (max. 0.001% final assay concentration) as well as in the presence of a (considerably) higher concentration of serum albumin (2.0% final assay concentration). An increase of the IC50 value, in the presence of serum albumin indicates an affinity to serum albumin and represents a method to predict a protracted pharmacokinetic profile of the test substance in animal models. The following chemicals were used in the assay: DMEM w/o phenol red (Gibco 11880-028), Pen/strep (Invitrogen 15140-122), G418 (Invitrogen 10131-027), 1 M Hepes (Gibco 15630), EDTA (Invitrogen 15575-038), PBS (Invitrogen 14190-094), fetal calf serum (Invitrogen 16140-071), EGTA, MgCl2 (Merck 1.05832.1000), Tween 20 (Amresco 0850C335), SPA particles (wheat germ agglutinin (WGA) SPA beads, Perkin Elmer RPNQ0001), [125I]-GLP-1]-(7-36)NH2 (produced in-house), OptiPlate™-96 (Perkin Elmer). Buffer 1 consisted of 20 mM Na-HEPES plus 10 mM EDTA and pH was adjusted to 7.4. Buffer 2 consisted of 20 mM Na-HEPES plus 0.1 mM EDTA and pH was adjusted to 7.4. Assay buffer consisted of 50 mM HEPES supplemented with 5 mM EGTA, 5 mM MgCl2, 0.005% Tween 20 and pH was adjusted to 7.4. The cells used in this assay (clone FCW467-12A) were BHK cells with BHKTS13 as a parent cell line. The cells express the human GLP-1 receptor. The cells were grown at 5% CO2 in DMEM, 10% fetal calf serum, 1% Pen/Strep (Penicillin/Streptomycin) and 1.0 mg/ml of the selection marker G418. To make a membrane preparation the cells were grown to approximately 80% confluence. The cells were washed twice in phosphate-buffered saline and harvested. The cells were pelleted using a brief centrifugation and the cell pellet was kept on ice. The cell pellet was homogenised with ULTRA-THURRAX dispersing instrument for 20-30 seconds in a suitable amount of buffer 1 (e.g., 10 ml). The homogenate was centrifuged for 15 minutes. The pellet was re-suspended (homogenised) in 10 ml buffer 2 and centrifuged. This step was repeated once more. The resulting pellet was re-suspended in buffer 2 and the protein concentration was determined. The membranes were aliquoted and stored at minus 80° C. • 1. For the receptor binding assay, 50 μl of the assay buffer was added to each well of an assay plate. • 2. Test compounds were serially diluted to give the following concentrations: 8×10EE-7 M, 8×10EE-8 M, 8×10EE-9 M, 8×10EE-10 M, 8×10EE-11 M, 8×10EE-12 M and 8×10EE-13 M. Twenty-five μl were added to appropriate wells in the assay plate. • 3. Cell membrane aliquots were thawed and diluted to their working concentration. Fifty μl were added to each well in the assay plate. • 4. WGA SPA beads were suspended in assay buffer at 20 mg/ml. The suspension was diluted to 10 mg/ml in assay buffer just prior to addition to the assay plate. Fifty μl were added to each well in the assay plate. • 5. The incubation was started by adding 25 μl of […] solution of [125I]-GLP-1]-(7-36)NH2 to each well of the assay plate. A 25 μl aliquot was reserved for measuring total counts/well. • 6. The assay plate was incubated for 2 h at 30° C. • 7. The assay plate was centrifuged for 10 min. • 8. The assay plate was read in a Perkin Elmer TopCount NXT instrument. […]

**Q.** CC[C@H](C)[C@H](NC(=O)[C@H](CC(C)C)NC(=O)[C@H](Cc1c[nH]c2ccccc12)NC(=O)[C@H](CCCCNC(=O)COCCOCCNC(=O)COCCOCCNC(=O)CC[C@H](NC(=O)CC[C@H](NC(=O)CC[C@H](NC(=O)CCCCCCCCCCCCCCCCC(=O)O)C(=O)O)C(=O)O)C(=O)O)NC(=O)[C@@H](NC(=O)[C@H](Cc1ccccc1)NC(=O)[C@H](CCC(=O)O)NC(=O)[C@H](CCCNC(=N)N)NC(=O)[C@H](C)NC(=O)[C@H](CCCNC(=N)N)NC(=O)[C@H](CCCCN)NC(=O)[C@H](C)NC(=O)[C@H](CC(=O)O)NC(=O)[C@H](CC(C)C)NC(=O)[C@H](Cc1ccc(O)cc1)NC(=O)[C@H](CCCCN)NC(=O)[C@H](CO)NC(=O)[C@H](Cc1ccc(O)cc1)NC(=O)[C@H](CC(=O)O)NC(=O)[C@H](CO)NC(=O)[C@@H](NC(=O)[C@H](Cc1ccccc1)NC(=O)[C@@H](NC(=O)CNC(=O)[C@H](CCC(N)=O)NC(=O)C(C)(C)NC(=O)[C@@H](N)Cc1c[nH]cn1)[C@@H](C)O)[C@@H](C)O)C(C)C)C(=O)N[C@@H](CO)C(=O)N[C@H](C(N)=O)[C@@H](C)O [Chem. 2, N^ε24-[2-[2-[2-[[2-[2-[2-[[(4S)-4-carboxy-4-[[(4S)-4-carboxy-4-[[(4S)-4-carboxy-4-(17-carboxyheptadecanoylamino)butanoyl]amino]butanoyl]amino]butanoyl]amino]ethoxy]ethoxy]acetyl]amino]ethoxy]ethoxy]acetyl]-[Aib2,Ala16,Lys17,Arg20,Glu21,Lys24,Ile27,Ser28]-Glucagon amide] (H-H[Aib]QGTFTSDYSKYLDAKRAREFVK([AEEA-AEEA-γGlu-γGlu-γGlu-C18 diacid])WLIST-NH2; N-terminus assumed) was tested. Which EC50 (human GLP-1 receptor [1]) did it give?
**A.** 2 pM

**Q.** And the IC50 (human GLP-1 receptor [2])?
**A.** 0.3 nM

**Q.** Which results are given for CC[C@H](C)[C@H](NC(=O)[C@H](CC(C)C)NC(=O)[C@H](Cc1c[nH]c2ccccc12)NC(=O)[C@H](CCC(N)=O)NC(=O)[C@@H](NC(=O)[C@H](Cc1ccccc1)NC(=O)[C@H](CC(=O)O)NC(=O)[C@H](CCCNC(=N)N)NC(=O)[C@H](C)NC(=O)[C@H](CCCNC(=N)N)NC(=O)[C@H](CCCNC(=N)N)NC(=O)[C@H](CO)NC(=O)[C@H](CCC(=O)O)NC(=O)[C@H](CC(C)C)NC(=O)[C@H](Cc1ccc(O)cc1)NC(=O)[C@H](CCCCN)NC(=O)[C@H](CO)NC(=O)[C@H](CC(C)C)NC(=O)[C@H](CC(=O)O)NC(=O)[C@H](CO)NC(=O)[C@@H](NC(=O)[C@H](Cc1ccccc1)NC(=O)[C@@H](NC(=O)CNC(=O)[C@H](CCC(N)=O)NC(=O)C(C)(C)NC(=O)[C@@H](N)Cc1c[nH]cn1)[C@@H](C)O)[C@@H](C)O)C(C)C)C(=O)N[C@@H](CCCCNC(=O)COCCOCCNC(=O)COCCOCCNC(=O)CC[C@H](NC(=O)CC[C@H](NC(=O)CC[C@H](NC(=O)CCCCCCCCCCCCCCCCC(=O)O)C(=O)O)C(=O)O)C(=O)O)C(=O)N[C@H](C(N)=O)[C@@H](C)O [Chem. 3, N^ε28-[2-[2-[2-[[2-[2-[2-[[(4S)-4-carboxy-4-[[(4S)-4-carboxy-4-[[(4S)-4-carboxy-4-(17-carboxyheptadecanoylamino)butanoyl]amino]butanoyl]amino]butanoyl]amino]ethoxy]ethoxy]acetyl]amino]ethoxy]ethoxy]acetyl]-[Aib2,Leu10,Glu15,Arg20,Ile27,Lys28]-Glucagon amide] (H-H[Aib]QGTFTSDLSKYLESRRARDFVQWLIK([AEEA-AEEA-γGlu-γGlu-γGlu-C18 diacid])T-NH2; N-terminus assumed)?
**A.** EC50 (human GLP-1 receptor [1]): 2 pM; IC50 (human GLP-1 receptor [2]): 0.1 nM
